Laboratory results from ChEMBL document CHEMBL1129992, “Arylamide inhibitors of HIV-1 integrase” (J Med Chem, 1997).

Key:
[1] = biological target: T1, Human immunodeficiency virus type 1 integrase (Human immunodeficiency virus 1, UniProt Q7ZJM1); assay: Inhibition of HIV-1 integrase-mediated strand transfer
[2] = biological target: T1, Human immunodeficiency virus type 1 integrase; assay: Inhibition of HIV-1 integrase-mediated 3'-processing

T1 sequence (Q7ZJM1 whole entry): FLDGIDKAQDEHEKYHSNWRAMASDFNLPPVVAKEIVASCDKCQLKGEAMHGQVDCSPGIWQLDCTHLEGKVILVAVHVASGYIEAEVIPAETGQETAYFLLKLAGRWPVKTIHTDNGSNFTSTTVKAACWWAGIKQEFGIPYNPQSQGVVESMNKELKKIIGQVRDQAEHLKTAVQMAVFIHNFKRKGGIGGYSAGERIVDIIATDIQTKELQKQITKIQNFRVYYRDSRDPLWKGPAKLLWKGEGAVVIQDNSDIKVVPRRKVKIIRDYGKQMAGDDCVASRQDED

Row | SMILES | IC50 [1] [µM] | IC50 [2] [µM]
1 | COc1ccc2cc(C(=O)NCCCNC(=O)c3ccc4cc(OC)ccc4c3)ccc2c1 | > 200 | > 200
2 | O=C(CCc1cc(O)cc(O)c1)NCCCNC(=O)CCc1cc(O)cc(O)c1 | > 200 | > 200
3 | COc1cc2ccc(C(=O)NCCCNC(=O)c3ccc4cc(OC)c(OC)cc4c3)cc2cc1OC | > 200 | > 200
4 | COC(=O)c1ccc2c(O)c(O)ccc2c1 | 52.7 | 58.4
5 | O=C(O)c1ccc2c(O)c(O)ccc2c1 | 62.4 | 53.3
6 | O=C(O)c1ccc2cc(O)c(O)cc2c1 | 4.7 | 5.4
7 | O=C(NCCCNC(=O)c1ccc2c(O)c(O)ccc2c1)c1ccc2c(O)c(O)ccc2c1 | 0.11 | 0.23
8 | COC(=O)c1ccc2cc(O)ccc2c1 | > 200 | > 200
9 | COc1ccc2cc(C(=O)NCCCNC(=O)c3ccc4c(OC)c(OC)ccc4c3)ccc2c1OC | > 200 | > 200
10 | O=C(NCCCNC(=O)c1ccc2cc(O)c(O)cc2c1)c1ccc2cc(O)c(O)cc2c1 | 0.81 | 0.98
11 | COC(=O)c1ccc2cc(O)c(O)cc2c1 | > 200 | > 200
12 | O=C(NCCCNC(=O)c1ccc2cc(O)ccc2c1)c1ccc2cc(O)ccc2c1 | > 200 | > 200
13 | O=C(O)c1ccc2cc(O)ccc2c1 | 172 | 172

Now from value to molecule:

Row | IC50 [1] [µM] | IC50 [2] [µM] | SMILES
14 |  | > 350 | O=C(CCc1ccc(O)cc1)NCCc1ccc(O)cc1
15 |  | 33 | O=C(CCc1ccc(O)c(O)c1)NCCc1ccc(O)c(O)c1
16 |  | > 350 | O=C(CCc1ccc(O)c(O)c1)NCCc1cc(O)cc(O)c1
17 |  | > 350 | O=C(CCc1ccc(O)cc1)NCCc1cccc(O)c1
18 |  | > 350 | O=C(CCc1cc(O)cc(O)c1)NCCc1cc(O)cc(O)c1
19 | > 200 | > 200 | O=C(CCc1ccc(O)cc1)NCCCNC(=O)CCc1ccc(O)cc1
20 |  | > 350 | O=C(CCc1cccc(O)c1)NCCc1ccc(O)cc1
21 |  | > 350 | O=C(CCc1cccc(O)c1)NCCc1cccc(O)c1
22 | > 200 | > 200 | O=C(CCc1cccc(O)c1)NCCCNC(=O)CCc1cccc(O)c1
23 |  | > 350 | O=C(CCc1cc(O)cc(O)c1)NCCc1ccc(O)c(O)c1
